Measured values reported in US8513229B2, “4-Azetidinyl-1-phenyl-cyclohexane antagonists of CCR2” (Janssen Pharmaceutica NV, priority 2009, dated 2013).

Molecular target: T1, CCR2 (Homo sapiens, UniProt P41597)
T1 construct: host or cells: THP-1 human monocytic cells
T1 sequence (P41597 1-360 isoform P41597-2): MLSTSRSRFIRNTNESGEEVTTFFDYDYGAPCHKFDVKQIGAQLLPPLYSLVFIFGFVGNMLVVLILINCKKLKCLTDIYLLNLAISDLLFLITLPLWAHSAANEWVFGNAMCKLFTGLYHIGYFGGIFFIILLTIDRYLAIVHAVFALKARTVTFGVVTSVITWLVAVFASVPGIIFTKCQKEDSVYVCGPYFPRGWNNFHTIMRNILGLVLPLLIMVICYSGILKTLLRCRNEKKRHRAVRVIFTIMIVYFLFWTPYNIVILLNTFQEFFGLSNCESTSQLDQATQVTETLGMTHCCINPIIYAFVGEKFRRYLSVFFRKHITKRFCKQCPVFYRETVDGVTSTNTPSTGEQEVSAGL
Assay: MCP-1 Receptor Binding Assay in THP-1 Cells
Conditions: 0.5 nM 125I labeled MCP-1, 2 hours at 30° C., read-out: Inhibition of MCP-1 Binding IC50 CCR2 Binding
Method: MCP-1 Receptor Binding Assay in THP-1 Cells
Human monocytic cell line THP-1 cells were obtained from American Type Culture Collection (Manassas, Va., USA). […] The cell density was maintained […].
1 μM cold MCP-1 was used for nonspecific binding.

Structure (SMILES)	IC50 [nM]
O=C(CNC(=O)c1cccc(C(F)(F)F)c1)NC1CN(C2CCC(O)(c3ccc(Cl)cc3)CC2)C1 (centres unmarked) [Example 53, N-({1-[4-(4-Chloro-phenyl)-4-hydroxy-cyclohexyl]-azetidin-3-ylcarbamoyl}-methyl)-3-trifluoromethyl-benzamide]	240
NC1(c2ccc3c(c2)OCO3)CCC(N2CC(NC(=O)CNC(=O)c3cccc(C(F)(F)F)c3)C2)CC1 (single isomer, unassigned) [Example 85a, N-{[1-(4-Amino-4-benzo[1,3]dioxol-5-yl-cyclohexyl)-azetidin-3-ylcarbamoyl]-methyl}-3-trifluoromethyl-benzamide]	280
COc1cccc(C2(N)CCC(N3CC(NC(=O)CNC(=O)c4cccc(C(F)(F)F)c4)C3)CC2)c1 (single isomer, unassigned) [Example 87a, N-({1-[4-Amino-4-(3-methoxy-phenyl)-cyclohexyl]-azetidin-3-ylcarbamoyl}-methyl)-3-trifluoromethyl-benzamide]	330
CC(C)(C)OC(=O)Nc1ccc(C2(O)CCC(N3CC(NC(=O)CNC(=O)c4cccc(C(F)(F)F)c4)C3)CC2)cc1 (centres unmarked) [Example 50, [4-(1-Hydroxy-4-{3-[2-(3-trifluoromethyl-benzoylamino)-acetylamino]-azetidin-1-yl}-cyclohexyl)-phenyl]-carbamic acid tert-butyl ester]	230
O=C(CNC(=O)c1cc(C(F)(F)F)cc(C(F)(F)F)c1)NC1CN(C2CCC(c3ccccc3)CC2)C1 (single isomer, unassigned) [Example 75a, N-{[1-(4-Phenyl-cyclohexyl)-azetidin-3-ylcarbamoyl]-methyl}-3,5-bis-trifluoromethyl-benzamide]	4700
COc1ccccc1C1(O)CCC(N2CC(NC(=O)CNC(=O)c3cccc(C(F)(F)F)c3)C2)CC1 (single isomer, unassigned) [Example 56a, N-({1-[4-Hydroxy-4-(2-methoxy-phenyl)-cyclohexyl]-azetidin-3-ylcarbamoyl}-methyl)-3-trifluoromethyl-benzamide]	5200
O=C(CNC(=O)c1cc([N+](=O)[O-])cc(C(F)(F)F)c1)NC1CN(C2CCC(c3ccccc3)CC2)C1 (centres unmarked) [Example 78, 3-Nitro-N-{[1-(4-phenyl-cyclohexyl)-azetidin-3-ylcarbamoyl]-methyl}-5-trifluoromethyl-benzamide]	1000
COc1ccc(C(=O)NCC(=O)NC2CN(C3CCC(c4ccccc4)CC3)C2)cc1C(F)(F)F (centres unmarked) [Example 67, 4-Methoxy-N-{[1-(4-phenyl-cyclohexyl)-azetidin-3-ylcarbamoyl]-methyl}-3-trifluoromethyl-benzamide]	600
N=C(N)Cc1ccc(C2CCC(N3CC(NC(=O)CNC(=O)c4cccc(C(F)(F)F)c4)C3)CC2)cc1 (centres unmarked) [Example 22, N-({1-[4-(4-Carbamimidoylmethyl-phenyl)-cyclohexyl]-azetidin-3-ylcarbamoyl}-methyl)-3-trifluoromethyl-benzamide]	8600
O=C(CNC(=O)c1cc(Br)cc(C(F)(F)F)c1)NC1CN(C2CCC(c3ccccc3)CC2)C1 (centres unmarked) [Example 77, 3-Bromo-N-{[1-(4-phenyl-cyclohexyl)-azetidin-3-ylcarbamoyl]-methyl}-5-trifluoromethyl-benzamide]	380
NC1(c2ccccc2)CCC(N2CC(NC(=O)CNC(=O)c3cccc(C(F)(F)F)c3)C2)CC1 (single isomer, unassigned) [Example 84a, N-{[1-(4-Amino-4-phenyl-cyclohexyl)-azetidin-3-ylcarbamoyl]-methyl}-3-trifluoromethyl-benzamide]	240
O=C(CNC(=O)c1cc(C(F)(F)F)ccc1N1CCCC1)NC1CN(C2CCC(c3ccccc3)CC2)C1 (centres unmarked) [Example 70, N-{[1-(4-Phenyl-cyclohexyl)-azetidin-3-ylcarbamoyl]-methyl}-2-pyrrolidin-1-yl-5-trifluoromethyl-benzamide]	1700
O=C(CNC(=O)c1cc(O)cc(C(F)(F)F)c1)NC1CN(C2CCC(c3ccccc3)CC2)C1 (centres unmarked) [Example 81, 3-Hydroxy-N-{[1-(4-phenyl-cyclohexyl)-azetidin-3-ylcarbamoyl]-methyl}-5-trifluoromethyl-benzamide]	11000
O=C(CNC(=O)c1ccccc1)NC1CN(C2CCC(c3ccc4c(c3)OCO4)CC2)C1 (single isomer, unassigned) [Example 2a, N-{[1-(4-Benzo[1,3]dioxol-5-yl-cyclohexyl)-azetidin-3-ylcarbamoyl]-methyl}-benzamide]	390
COc1ccc(C(F)(F)F)cc1C(=O)NCC(=O)NC1CN(C2CCC(c3ccccc3)CC2)C1 (centres unmarked) [Example 68, 2-Methoxy-N-{[1-(4-phenyl-cyclohexyl)-azetidin-3-ylcarbamoyl]-methyl}-5-trifluoromethyl-benzamide]	740

Now those with a lower IC50, led by results:

IC50 [nM]	Structure (SMILES)
45	O=C(CNC(=O)c1cccc(C(F)(F)F)c1)NC1CN(C2CCC(c3ccc4c(c3)OCC4)CC2)C1 (single isomer, unassigned) [Example 3a, N-({1-[4-(2,3-Dihydro-benzofuran-6-yl)-cyclohexyl]-azetidin-3-ylcarbamoyl}-methyl)-3-trifluoromethylbenzamide]
70	O=C(CNC(=O)c1cccc(C(F)(F)F)c1)NC1CN(C2CCC(c3ccc(C(=O)O)cc3)CC2)C1 (centres unmarked) [Example 10, 4-(4-{3-[2-(3-Trifluoromethyl-benzoylamino)-acetylamino]-azetidin-1-yl}-cyclohexyl)-benzoic acid]
33	COc1ccc(C2(O)CCC(N3CC(NC(=O)CNC(=O)c4cccc(C(F)(F)F)c4)C3)CC2)cc1F (single isomer, unassigned) [Example 57a, N-({1-[4-(3-Fluoro-4-methoxy-phenyl)-4-hydroxy-cyclohexyl]-azetidin-3-ylcarbamoyl}-methyl)-3-trifluoromethyl-benzamide]
200	O=C(CNC(=O)c1ccc(F)c(C(F)(F)F)c1)NC1CN(C2CCC(c3ccccc3)CC2)C1 (single isomer, unassigned) [Example 71a, 4-Fluoro-N-{[1-(4-phenyl-cyclohexyl)-azetidin-3-ylcarbamoyl]-methyl}-3-trifluoromethyl-benzamide]
23	Nc1cc(C(=O)NCC(=O)NC2CN(C3CCC(c4ccccc4)CC3)C2)cc(C(F)(F)F)c1 (centres unmarked) [Example 79, 3-Amino-N-{[1-(4-phenyl-cyclohexyl)-azetidin-3-ylcarbamoyl]-methyl}-5-trifluoromethyl-benzamide]
50	COc1ccc(C2CCC(N3CC(NC(=O)CNC(=O)c4cccc(C(F)(F)F)c4)C3)CC2)cc1 (single isomer, unassigned) [Example 7a, N-({1-[4-(4-Methoxy-phenyl)-cyclohexyl]-azetidin-3-ylcarbamoyl}-methyl)-3-trifluoromethyl-benzamide]
100	Cc1cccc(C2(O)CCC(N3CC(NC(=O)CNC(=O)c4cccc(C(F)(F)F)c4)C3)CC2)c1 (centres unmarked) [Example 60, N-{[1-(4-Hydroxy-4-m-tolyl-cyclohexyl)-azetidin-3-ylcarbamoyl]-methyl}-3-trifluoromethyl-benzamide]
52	Nc1cccc(C2(O)CCC(N3CC(NC(=O)CNC(=O)c4cccc(C(F)(F)F)c4)C3)CC2)c1 (single isomer, unassigned) [Example 58a, N-({1-[4-(3-Amino-phenyl)-4-hydroxy-cyclohexyl]-azetidin-3-ylcarbamoyl}-methyl)-3-trifluoromethyl-benzamide]
61	O=C(CNC(=O)c1cccc(C(F)(F)F)c1)NC1CN(C2CCC(c3ccc(N4CCCC4)cc3)CC2)C1 (centres unmarked) [Example 13, N-({1-[4-(4-Pyrrolidin-1-yl-phenyl)-cyclohexyl]-azetidin-3-ylcarbamoyl}-methyl)-3-trifluoromethyl-benzamide]
130	NC(=O)Nc1ccc(C2CCC(N3CC(NC(=O)CNC(=O)c4cccc(C(F)(F)F)c4)C3)CC2)cc1 (centres unmarked) [Example 19, 3-Trifluoromethyl-N-({1-[4-(4-ureido-phenyl)-cyclohexyl]-azetidin-3-ylcarbamoyl}-methyl)-benzamide]
25	O=C(CNC(=O)c1cccc(C(F)(F)F)c1)NC1CN(C2CCC(O)(c3ccc4c(c3)OCC4)CC2)C1 (single isomer, unassigned) [Example 33a, N-({1-[4-(2,3-Dihydro-benzofuran-6-yl)-4-hydroxy-cyclohexyl]-azetidin-3-ylcarbamoyl}-methyl)-3-trifluoromethyl-benzamide]
190	O=C(CNC(=O)c1cccc(C(F)(F)F)c1)NC1CN(C2CCC(O)(c3ccc4oc(=O)[nH]c4c3)CC2)C1 (single isomer, unassigned) [Example 35a, N-({1-[4-Hydroxy-4-(2-oxo-2,3-dihydro-benzooxazol-5-yl)-cyclohexyl]-azetidin-3-ylcarbamoyl}-methyl)-3-trifluoromethyl-benzamide]
150	CCn1c(=O)oc2ccc(C3(O)CCC(N4CC(NC(=O)CNC(=O)c5cccc(C(F)(F)F)c5)C4)CC3)cc21 (single isomer, unassigned) [Example 65a, N-({1-[4-(3-Ethyl-2-oxo-2,3-dihydro-benzooxazol-5-yl)-4-hydroxy-cyclohexyl]-azetidin-3-ylcarbamoyl}-methyl)-3-trifluoromethyl-benzamide]
21	O=C(CNC(=O)c1cccc(C(F)(F)F)c1)NC1CN(C2CCC(c3ccc(O)cc3)CC2)C1 (single isomer, unassigned) [Example 40a, N-({1-[4-(4-Hydroxy-phenyl)-cyclohexyl]-azetidin-3-ylcarbamoyl}-methyl)-3-trifluoromethyl-benzamide]
